Our source for the mass density and refractive index values is the NIST ThermoML archive (doi:10.1016/j.fluid.2012.09.019).

Molecules are shown by their SMILES. Numbers after ± are expanded uncertainties.

For data set [1] the following is noted: 298.15 K; 101.33 kPa; Liquid; Vibrating tube method.
A short description of data set [2]: refractive index (Na D-line) (dimensionless). The settings on record: 298.15 K; 101.33 kPa; Liquid; Standard Abbe refractometry.

For the compound `CCCCCCCCCC` [decane], the mass density in data set [1] came out at 726.36 ± 0.17 kg/m3. In addition, the refractive index in data set [2] is on record as 1.4108 ± 0.0008.
The corresponding values for `Cc1ccc(C)cc1` [1,4-dimethylbenzene] are 856.71 ± 0.14 kg/m3 and 1.4957 ± 0.0008.
As to `Cc1ccccc1C` [1,2-dimethylbenzene], in data set [1], the mass density came out at 859.54 ± 0.14 kg/m3. The refractive index in data set [2] amounted to 1.4945 ± 0.0008.
For `Cc1cccc(C)c1` [1,3-dimethylbenzene], the mass density in data set [1] amounted to 859.95 ± 0.14 kg/m3. For the same compound, the refractive index in data set [2] is on record as 1.4946 ± 0.0008.
